Assay results reported in patent US8927521B2, “Cyclic adenosine monophosphates for reducing the formation of adhesions” (University of Pittsburgh—of the Commonwealth System of …, priority 2008, dated 2015).
“And” between values parts separate entries of the source, which are not always exact repeats. Equal values may be shown once.

Key:
[1] = tested on: post-surgical adhesion formation; assay: Post-surgical abdominal adhesion formation after cecum injury in mice (Example 1); format: in vivo, C57Bl mice; conditions: for adhesion score compared with saline control group or other treatments (Fisher's Least Significant Difference test): post-hoc analysis, Example 1; for adhesion score (mean±standard error of mean): 1 ml wash + 1 ml in peritoneal cavity, scored ten days later; for adhesion scores for all mice (individual animals): one value per mouse
Experimental: This protocol examined the effects of several treatments on post-surgical adhesion formation. Six-week-old C57Bl mice were fasted overnight and then anesthetized the following day with an intraperitoneal injection of pentobarbital (50 mg/kg). The surgical procedures were conducted under aseptic conditions. The abdomen was shaved to remove hair, and the incision site was cleaned with betadine solution. Surgery was performed under a laminar flow hood using instruments sterilized in a glass bead sterilizer. The abdomen was opened via a midline incision of approximately 10 mm. The cecum was exposed and placed on sterile gauze. […] After 30 seconds, the ethanol was washed from the cecum surface with 1-ml of test solution. Next, the cecum was returned to the peritoneal cavity and placed in its natural position. Then 1-ml of test solution was placed in the peritoneal cavity, and the abdominal incision was repaired by suturing. […] The animals were placed under a warming lamp and observed until they regained consciousness. After regaining consciousness, the mice were placed back in the housing cage. Ten days later, the animals were again anesthetized with pentobarbital, and the abdomen was surgically opened to provide a clear view of the intestines. […] Adhesions were identified visually and by noting the difficulty of separating adjacent surfaces. Adhesion scores were assigned by an individual blinded to (that is unaware of) the test solutions used to treat the animals. The scoring was based on the extent of adhesion of the cecum to itself and to adjacent tissues or organs. […] In this example, there were six groups that were treated with test solutions containing chemical agents of interest. In addition, there was a seventh group (the control group) in which the test solution was only the vehicle in which the chemical agents of interest were dissolved. The vehicle for all six test solutions was 0.9% saline, so the seventh group (control group) received only 0.9% saline as the test solution.

[2] = tested on: post-surgical adhesion formation; assay: Post-surgical adhesion formation in mice, all groups co-treated with 1,3-dipropyl-8-(p-sulfophenyl)xanthine (Example 2); format: in vivo; conditions: for adhesion scores (individual animals): one value per mouse; for adhesion score (mean±standard error of mean): scale 1 to 5
Experimental: This protocol examined the effects of several treatments on post-surgical adhesion formation. Six-week-old C57Bl mice were fasted overnight and then anesthetized the following day with an intraperitoneal injection of pentobarbital (50 mg/kg). The surgical procedures were conducted under aseptic conditions. The abdomen was shaved to remove hair, and the incision site was cleaned with betadine solution. Surgery was performed under a laminar flow hood using instruments sterilized in a glass bead sterilizer. The abdomen was opened via a midline incision of approximately 10 mm. The cecum was exposed and placed on sterile gauze. […] After 30 seconds, the ethanol was washed from the cecum surface with 1-ml of test solution. Next, the cecum was returned to the peritoneal cavity and placed in its natural position. Then 1-ml of test solution was placed in the peritoneal cavity, and the abdominal incision was repaired by suturing. […] The animals were placed under a warming lamp and observed until they regained consciousness. After regaining consciousness, the mice were placed back in the housing cage.
Ten days later, the animals were again anesthetized with pentobarbital, and the abdomen was surgically opened to provide a clear view of the intestines. The severity of adhesion formation was assessed on a semi-quantitative scale from 1 to 5, taking into account the extent of adhesion formation (with 1 being the least amount of adhesion formation and 5 being the most amount of adhesion formation). Adhesions were identified visually and by noting the difficulty of separating adjacent surfaces. Adhesion scores were assigned by an individual blinded to (that is unaware of) the test solutions used to treat the animals. The scoring was based on the extent of adhesion of the cecum to itself and to adjacent tissues or organs. A score of 1 was assigned to animals when there was only minimal (approximately >10 to <20%) adhesion of the cecum to itself (that is within the cecum core) with no adhesion of the cecum to other adjacent structures (abdominal wall, liver or intestines). A score of 2 was assigned when there was mild (approximately >20 to <30%) adhesion of the cecum to itself or when there was minimal (approximately >10 to <20%) adhesion of the cecum to itself but in addition minimal adhesion of the cecum to adjacent structures. A score of 3 was assigned to animals when the adhesion of the cecum to itself was moderate (approximately >30 to <50%), in the absence or presence of minimal adhesion of the cecum to adjacent structures. A score of 4 was assigned to animals when the adhesion of the cecum to itself was severe (approximately >60 to <80%) or when there was moderate adhesion to adjacent structures or both. A score of 5 was assigned to animals when adhesion of the cecum to itself was so extensive that it existed as one entity (complete adhesion within itself) or when there was severe adhesion of the cecum to itself but in addition severe adhesion of the cecum to adjacent structures.

[3] = Excerpt: However, there are serious limitations with regard to using adenosine for this purpose that preclude an optimal anti-adhesive efficacy. […] Dis Colon Rectum. […] Consequently the time-concentration profile of adenosine in the surgical field cannot be optimized.
[4] = tested on: P1 adenosine receptor subtypes (A1, A2A, A2B and A3); conditions: at 1 mM; cited from earlier work
[5] = scale 1 to 5, 75 millimoles/L in 0.9% saline

SMILES	efficacy in inhibiting formation of post-surgical abdominal adhesions (in words) ([1]; 75 millimoles/L)	adhesion score compared with saline control group or other treatments (Fisher's Least Significant Difference test) [1]	adhesion score (mean±standard error of mean) [1, 5]	concentration of stable aqueous solutions (aqueous solubility) [3] [millimoles/L]	further results
Nc1ncnc2c1ncn2[C@@H]1O[C@H](CO)[C@@H](O)[C@H]1OP(=O)(O)O [2′-adenosine monophosphate]	nearly inactive	only slightly less than	4.08±0.15		adhesion scores for all mice (individual animals) ([1]; scale 1 to 5, 75 millimoles/L, listed as 2′-AMP): 4 (9×) and 3 and 5 (2×)
Nc1ncnc2c1ncn2[C@@H]1O[C@H](CO)[C@@H](O)[C@H]1O [Adenosine]				≤ 23	adhesion score (mean±standard error of mean) ([1]; scale 1 (least) to 5 (most), 23 millimoles/L in 0.9% saline): 3.08±0.15; adhesion scores for all mice (individual animals) ([1]; scale 1 to 5, 23 millimoles/L): 3 (9×) and 4 (2×) and 2; adhesion scores (individual animals) ([2]; 23 mM + 1,3-dipropyl-8-(p-sulfophenyl)xanthine 1 mM): 4 (3×) and 5; adhesion score (mean±standard error of mean) ([2]; 23 millimoles/L + 1,3-dipropyl-8-(p-sulfophenyl)xanthine 1 mM): 4.25±0.22; adhesion score compared with the saline group (Fisher's Least Significant Difference test) ([2]; in presence of 1,3-dipropyl-8-(p-sulfophenyl)xanthine 1 mM): did not significantly reduce
Nc1ncnc2c1ncn2[C@@H]1O[C@H](CO)[C@@H](OP(=O)(O)O)[C@H]1O [3′-adenosine monophosphate]	nearly inactive	only slightly less than	4.00±0.17		adhesion scores for all mice (individual animals) ([1]; scale 1 to 5, 75 millimoles/L, listed as 3′-AMP): 4 (8×) and 3 (2×) and 5 (2×)
Nc1ncnc2c1ncn2[C@@H]1O[C@H](COP(=O)(O)O)[C@@H](O)[C@H]1O [5′-adenosine monophosphate]	nearly inactive	only slightly less than	3.82±0.18	> 75	adhesion scores for all mice (individual animals) ([1]; scale 1 to 5, 75 millimoles/L, listed as 5′-AMP): 4 (7×) and 3 (3×) and 5
CCCn1c(=O)c2[nH]c(-c3ccc(S(=O)(=O)O)cc3)nc2n(CCC)c1=O [1,3-dipropyl-8-(p-sulfophenyl)xanthine]					adhesion score (mean±standard error of mean) ([2]; 1,3-dipropyl-8-(p-sulfophenyl)xanthine 1 mM + saline only (group headed Saline)): 4.75±0.22; adhesion scores (individual animals) ([2]; 1,3-dipropyl-8-(p-sulfophenyl)xanthine 1 mM + saline only): 5 (3×) and 4; blockade of adenosine receptor subtypes [4]: blocks all four P1 adenosine receptor subtypes
